Results as given in patent publication US20090163516A1, “CARBOXAMIDES FOR CONTROLLING UNDESIRED MICRO-ORGANISMS IN PLANT PROTECTION” (Bayer Cropscience AG, priority 2005, published 2009).

Key:
Alternaria solani = assay: Alternaria test (tomato)/protective; type: in vivo; details: 168 h, young tomato plants sprayed, inoculated one day after treatment, evaluation 7 days after inoculation, read-out: Efficacy in %
Protocol: (§1) To produce a suitable preparation of active compound, 1 part by weight of active compound is mixed with the stated amounts of solvent and emulsifier, and the concentrate is diluted with water to the desired concentration.
To test for protective activity, young tomato plants are sprayed with the active compound preparation at the stated application rate. One day after the treatment, the plants are inoculated with a spore suspension of Alternaria solani and then remain at 100% relative humidity and 20° C. for 24 h. The plants then remain at 96% relative atmospheric humidity and a temperature of 20° C.
(§2) Evaluation is carried out 7 days after the inoculation. 0% means an efficacy which corresponds to that of the control, whereas an efficacy of 100% means that no infection is observed.

[1] = logP determination by HPLC on a reverse-phase column (EEC Directive 79/831 Annex V.A8); type: physicochemical; details: reverse-phase C18 HPLC column; pH 2.3; HPLC reverse-phase C 18, 43° C., 0.1% aqueous phosphoric acid and acetonitrile
Protocol: The determination is carried out in the acidic range at pH 2.3 using the mobile phases 0.1% aqueous phosphoric acid and acetonitrile; linear gradient from 10% acetonitrile to 90% acetonitrile.

Sphaerotheca fuliginea = assay: Sphaerotheca test (cucumber)/protective; type: in vivo; details: 500 ppm; young cucumber plants sprayed, inoculated one day after treatment; evaluation 7 days after inoculation
Protocol: as §1
To test for protective activity, young cucumber plants are sprayed with the active compound preparation at the stated application rate. One day after the treatment, the plants are inoculated with a spore suspension of Sphaerotheca fuliginea. The plants are then placed in a greenhouse at 70% relative atmospheric humidity and a temperature of 23° C.
as §2

Pyrenophora teres = Pyrenophora teres test (barley)/protective; type: in vivo; details: 1000 ppm; young barley plants sprayed; evaluation 8 days after inoculation
Protocol: as §1
To test for protective activity, young plants are sprayed with the active compound preparation at the stated application rate. After the spray coating has dried on, the plants are sprayed with a conidia suspension of Pyrenophora teres. The plants remain in an incubation cabin at 20° C. and 100% relative atmospheric humidity for 48 hours. The plants are then placed in a greenhouse at a temperature of about 20° C. and a relative atmospheric humidity of about 80%.
Evaluation is carried out 8 days after the inoculation. 0% means an efficacy which corresponds to that of the control, whereas an efficacy of 100% means that no infection is observed.

Podosphaera leucotricha = assay: Podosphaera test (apple)/protective; type: in vivo; details: 100 ppm; young apple plants sprayed; evaluation 10 days after inoculation
Protocol: (§3) To produce a suitable preparation of active compound, 1 part by weight of active compound is mixed with the stated amounts of solvents and emulsifier, and the concentrate is diluted with water to the desired concentration.
To test for protective activity, young plants are sprayed with the active compound preparation at the stated application rate. After the spray coating has dried on, the plants are inoculated with an aqueous spore suspension of the apple mildew pathogen Podosphaera leucotricha. The plants are then placed in a greenhouse at about 23° C. and a relative atmospheric humidity of about 70%.
(§4) Evaluation is carried out 10 days after the inoculation. 0% means an efficacy which corresponds to that of the control, whereas an efficacy of 100% means that no infection is observed.

Venturia inaequalis = assay: Venturia test (apple)/protective; type: in vivo; details: 100 ppm; young apple plants sprayed; evaluation 10 days after inoculation
Protocol: as §3
To test for protective activity, young plants are sprayed with the active compound preparation at the stated application rate. After the spray coating has dried on, the plants are inoculated with an aqueous conidia suspension of the apple scab pathogen Venturia inaequalis and then remain in an incubation cabin at about 20° C. and 100% relative atmospheric humidity for 1 day. The plants are then placed in a greenhouse at about 21° C. and a relative atmospheric humidity of about 90%.
as §4

Botrytis cinerea = assay: Botrytis test (bean)/protective; type: in vivo; details: 48 h, young bean plants sprayed, size of infected areas two days after inoculation, read-out: Efficacy in %
Protocol: as §3
To test for protective activity, young plants are sprayed with the active compound preparation at the stated application rate. After the spray coating has dried on, two small pieces of agar colonized by Botrytis cinerea are placed onto each leaf. The inoculated plants are placed in a dark chamber at about 20° C. and 100% relative atmospheric humidity.
Two days after the inoculation, the size of the infected areas on the leaves is evaluated. 0% means an efficacy which corresponds to that of the control, whereas an efficacy of 100% means that no infection is observed.

Question: For `O=C(c1ccccc1Cl)N(C(=O)c1ccccc1Cl)c1ncncc1-c1ccc(OC(F)(F)F)cc1`, which pest or weed control at 500 ppm (Alternaria solani) is on record?
Answer: 70%

Question: For `Cc1ccsc1C(=O)Nc1ncncc1-c1ccc(OC(F)(F)F)cc1`, which pest or weed control at 500 ppm (Alternaria solani) is on record?
Answer: 70%

Question: Which chromatographic logP [1] does the source give for `O=C(Nc1ncncc1-c1ccc(Cl)cc1)c1ccccc1C(F)(F)F` [Example 1, N-[5-(4-chlorophenyl)-4-pyrimidinyl]-2-(trifluoromethyl)benzamide] here?
Answer: 2.57

Question: Which chromatographic logP [1] does the source give for `Cc1nc(C(F)(F)F)c(C(=O)Nc2ncncc2-c2ccc(Cl)c(Cl)c2)s1` [Example 2, N-[5-(3,4-dichlorophenyl)-4-pyrimidinyl]-2-methyl-4-(trifluoromethyl)-1,3-thiazole-5-carboxamide] here?
Answer: 2.85

Question: Which chromatographic logP [1] does the source give for `O=C(Nc1ncncc1-c1ccc(Cl)c(Cl)c1)c1ccccc1C(F)(F)F` [Example 6] here?
Answer: 2.92

Question: For `O=C(Nc1ncncc1-c1ccc(Br)cc1)c1ccccc1I` [Example 7], which chromatographic logP [1] is on record?
Answer: 2.61

Question: Which chromatographic logP [1] does the source give for `O=C(Nc1ncncc1-c1ccc(Cl)c(Cl)c1)c1ccccc1I` [Example 8] here?
Answer: 2.89

Question: With `O=C(Nc1ncncc1-c1ccc(Br)cc1)c1ccccc1Cl` [Example 9] as the compound, how does the chromatographic logP [1] read?
Answer: 2.46

Question: With `O=C(Nc1ncncc1-c1ccc(Cl)c(Cl)c1)c1ccccc1Cl` [Example 10] as the compound, how does the chromatographic logP [1] read?
Answer: 2.73

Question: Which chromatographic logP [1] does the source give for `O=C(c1ccccc1Cl)N(C(=O)c1ccccc1Cl)c1ncncc1-c1ccc(C(F)(F)F)cc1` [Example 12] here?
Answer: 4.12

Question: Which chromatographic logP [1] does the source give for `O=C(Nc1ncncc1-c1ccc(C(F)(F)F)cc1)c1ccccc1Cl` [Example 13] here?
Answer: 2.62

Question: Which chromatographic logP [1] does the source give for `O=C(c1ccccc1Cl)N(C(=O)c1ccccc1Cl)c1ncncc1-c1ccc(Br)cc1` [Example 14] here?
Answer: 2.73

Question: For `O=C(c1ccccc1Cl)N(C(=O)c1ccccc1Cl)c1ncncc1-c1ccc(Cl)c(Cl)c1` [Example 15], which chromatographic logP [1] is on record?
Answer: 2.46

Question: For `Cn1cc(C(=O)Nc2ncncc2-c2ccc(Cl)c(Cl)c2)c(C(F)(F)F)n1` [Example 19], which chromatographic logP [1] is on record?
Answer: 2.46

Question: Which chromatographic logP [1] does the source give for `Nc1ncncc1-c1ccc(Cl)c(Cl)c1` [III-1, 5-(3,4-dichlorophenyl)-4-pyrimidinylamine] here?
Answer: 0.87

Question: For `O=C(Nc1ncncc1-c1ccc(Cl)cc1)c1ccccc1C(F)(F)F` [drawing 72], which Efficacy in % (Sphaerotheca fuliginea) is on record?
Answer: 78%

Question: With `O=C(Nc1ncncc1-c1ccc(Br)cc1)c1ccccc1I` [drawing 73] as the compound, how does the Efficacy in % (Sphaerotheca fuliginea) read?
Answer: 95%

Question: Which Efficacy in % (Sphaerotheca fuliginea) does the source give for `O=C(Nc1ncncc1-c1ccc(Cl)c(Cl)c1)c1ccccc1I` [drawing 74] here?
Answer: 100%

Question: With `O=C(Nc1ncncc1-c1ccc(Cl)c(Cl)c1)c1ccccc1Cl` [drawing 75] as the compound, how does the Efficacy in % (Sphaerotheca fuliginea) read?
Answer: 90%

Question: For `O=C(Nc1ncncc1-c1ccc(OC(F)(F)F)cc1)c1ccccc1I` [drawing 76], which Efficacy in % (Sphaerotheca fuliginea) is on record?
Answer: 95%

Question: For `Cn1cc(C(=O)Nc2ncncc2-c2ccc(Cl)c(Cl)c2)c(C(F)(F)F)n1` [drawing 77], which Efficacy in % (Sphaerotheca fuliginea) is on record?
Answer: 95%

Question: Which pest or weed control at 500 ppm (Alternaria solani) does the source give for `O=C(Nc1ncncc1-c1ccc(Cl)cc1)c1ccccc1C(F)(F)F` [drawing 78] here?
Answer: 100%

Question: For `O=C(Nc1ncncc1-c1ccc(Br)cc1)c1ccccc1I` [drawing 79], which pest or weed control at 500 ppm (Alternaria solani) is on record?
Answer: 100%

Question: With `O=C(Nc1ncncc1-c1ccc(Cl)c(Cl)c1)c1ccccc1I` [drawing 80] as the compound, how does the pest or weed control at 500 ppm (Alternaria solani) read?
Answer: 100%

Question: Which pest or weed control at 500 ppm (Alternaria solani) does the source give for `O=C(Nc1ncncc1-c1ccc(Br)cc1)c1ccccc1Cl` [drawing 81] here?
Answer: 100%

Question: For `O=C(Nc1ncncc1-c1ccc(Cl)c(Cl)c1)c1ccccc1Cl` [drawing 82], which pest or weed control at 500 ppm (Alternaria solani) is on record?
Answer: 100%

Question: With `O=C(Nc1ncncc1-c1ccc(OC(F)(F)F)cc1)c1ccccc1I` [drawing 83] as the compound, how does the pest or weed control at 500 ppm (Alternaria solani) read?
Answer: 100%

Question: For `O=C(c1ccccc1Cl)N(C(=O)c1ccccc1Cl)c1ncncc1-c1ccc(C(F)(F)F)cc1` [drawing 84], which pest or weed control at 500 ppm (Alternaria solani) is on record?
Answer: 100%

Question: Which pest or weed control at 500 ppm (Alternaria solani) does the source give for `O=C(Nc1ncncc1-c1ccc(C(F)(F)F)cc1)c1ccccc1Cl` [drawing 85] here?
Answer: 100%

Question: Which pest or weed control at 500 ppm (Alternaria solani) does the source give for `O=C(c1ccccc1Cl)N(C(=O)c1ccccc1Cl)c1ncncc1-c1ccc(Br)cc1` [drawing 86] here?
Answer: 71%

Question: Which pest or weed control at 500 ppm (Alternaria solani) does the source give for `O=C(c1ccccc1Cl)N(C(=O)c1ccccc1Cl)c1ncncc1-c1ccc(Cl)c(Cl)c1` [drawing 87] here?
Answer: 95%

Question: With `O=C(Nc1ncncc1-c1ccc(OC(F)(F)F)cc1)c1ccccc1Cl` [drawing 89] as the compound, how does the pest or weed control at 500 ppm (Alternaria solani) read?
Answer: 95%

Question: For `Cn1cc(C(=O)Nc2ncncc2-c2ccc(Cl)c(Cl)c2)c(C(F)(F)F)n1` [drawing 90], which pest or weed control at 500 ppm (Alternaria solani) is on record?
Answer: 95%

Question: With `O=C(Nc1ncncc1-c1ccc(Br)cc1)c1ccccc1I` [drawing 92] as the compound, how does the Efficacy in % (Pyrenophora teres) read?
Answer: 89%

Question: With `O=C(Nc1ncncc1-c1ccc(Cl)c(Cl)c1)c1ccccc1I` [drawing 93] as the compound, how does the Efficacy in % (Pyrenophora teres) read?
Answer: 100%

Question: Which Efficacy in % (Podosphaera leucotricha) does the source give for `O=C(Nc1ncncc1-c1ccc(Br)cc1)c1ccccc1I` [drawing 94] here?
Answer: 87%

Question: With `O=C(Nc1ncncc1-c1ccc(Cl)c(Cl)c1)c1ccccc1I` [drawing 95] as the compound, how does the Efficacy in % (Podosphaera leucotricha) read?
Answer: 93%

Question: For `O=C(Nc1ncncc1-c1ccc(C(F)(F)F)cc1)c1ccccc1Cl` [drawing 96], which Efficacy in % (Podosphaera leucotricha) is on record?
Answer: 93%

Question: For `Cc1nc(C(F)(F)F)c(C(=O)Nc2ncncc2-c2ccc(Cl)c(Cl)c2)s1` [drawing 97], which Efficacy in % (Venturia inaequalis) is on record?
Answer: 95%

Question: For `O=C(Nc1ncncc1-c1ccc(Cl)c(Cl)c1)c1ccccc1C(F)(F)F` [drawing 98], which Efficacy in % (Venturia inaequalis) is on record?
Answer: 95%

Question: Which pest or weed control at 500 ppm (Botrytis cinerea) does the source give for `Cc1nc(C(F)(F)F)c(C(=O)Nc2ncncc2-c2ccc(Cl)c(Cl)c2)s1` [drawing 99] here?
Answer: 91%

Question: With `O=C(Nc1ncncc1-c1ccc(Cl)c(Cl)c1)c1ccccc1C(F)(F)F` [drawing 100] as the compound, how does the pest or weed control at 500 ppm (Botrytis cinerea) read?
Answer: 80%

Question: Which pest or weed control at 500 ppm (Botrytis cinerea) does the source give for `O=C(Nc1ncncc1-c1ccc(Cl)c(Cl)c1)c1ccccc1I` [drawing 101] here?
Answer: 96%

Question: With `O=C(Nc1ncncc1-c1ccc(Br)cc1)c1ccccc1Cl` [drawing 102] as the compound, how does the pest or weed control at 500 ppm (Botrytis cinerea) read?
Answer: 99%

Question: For `O=C(Nc1ncncc1-c1ccc(Cl)c(Cl)c1)c1ccccc1Cl` [drawing 103], which pest or weed control at 500 ppm (Botrytis cinerea) is on record?
Answer: 91%

Question: Which pest or weed control at 500 ppm (Botrytis cinerea) does the source give for `O=C(Nc1ncncc1-c1ccc(OC(F)(F)F)cc1)c1ccccc1I` [drawing 104] here?
Answer: 89%

Question: With `O=C(Nc1ncncc1-c1ccc(C(F)(F)F)cc1)c1ccccc1Cl` [drawing 105] as the compound, how does the pest or weed control at 500 ppm (Botrytis cinerea) read?
Answer: 100%

Question: For `O=C(Nc1ncncc1-c1ccc(OC(F)(F)F)cc1)c1ccccc1Cl` [drawing 106], which pest or weed control at 500 ppm (Botrytis cinerea) is on record?
Answer: 79%
